In patent publication US20160287589A1, “SUBSTITUTED-IMIDAZOPYRIDAZINES” (BAYER PHARMA AKTIENGESELLSCHAFT, priority 2013, published 2016) one finds IC50 data, which are given here for 25 molecules.

For test [1], the target named is T1, MKNK1 (Homo sapiens, UniProt Q9BUB5, T385D).
T1 construct: GST (N); purchased Carna Biosciences 02-145; host or cells: insect cells (baculovirus expression system)
As to the kind of experiment: MKNK1 kinase assay (MKNK1 TR-FRET assay). It is filed as biochemical. Conditions: Table 1a; 10 μM ATP, 15 min preincubation. From the text:
MKNK1-inhibitory activity of compounds of the present invention was quantified employing the MKNK1 TR-FRET assay as described in the following paragraphs.
A recombinant fusion protein of Glutathione-S-Transferase (GST, N-terminally) and human full-lengt MKNK1 (amino acids 1-424 and T344D of accession number BAA 19885.1), expressed in insect cells using baculovirus expression system and purified via glutathione sepharose affinity chromatography, was purchased from Carna Biosciences (product no 02-145) and used as enzyme. As substrate for the kinase reaction the biotinylated peptide biotin-Ahx-IKKRKLTRRKSLKG (C-terminus in amide form) was used which can be purchased e.g. form the company Biosyntan (Berlin-Buch, Germany).
For the assay 50 nL of a 100 fold concentrated solution of the test compound in DMSO was pipetted into a black low volume 384 well microtiter plate (Greiner Bio-One, Frickenhausen, Germany), 2 μL of a solution of MKNK1 in aqueous assay buffer [50 mM HEPES pH 7.5, 5 mM magnesium chloride, 1.0 mM dithiothreitol, 0.005% (v/v) Nonidet-P40 (Sigma)] was added and the mixture was incubated for 15 min at 22° C. to allow pre-binding of the test compounds to the enzyme before the start of the kinase reaction. […] The concentration of MKNK1 was adjusted depending of the activity of the enzyme lot and was chosen appropriate to have the assay in the linear range, typical concentrations were in the range of […]. The reaction was stopped by the addition of 5 μL of a solution of TR-FRET detection reagents (5 nM streptavidine-XL665 [Cisbio Bioassays, Codolet, France] and 1 nM anti-ribosomal protein S6 (pSer236)-antibody from Invitrogen [#44921G] and 1 nM LANCE EU-W1024 labeled ProteinG [Perkin-Elmer, product no. AD0071]) in an aqueous EDTA-solution (100 mM EDTA, 0.1% (w/v) bovine serum albumin in 50 mM HEPES pH 7.5).
The resulting mixture was incubated for 1 h at 22° C. to allow the formation of complex between the phosphorylated biotinylated peptide and the detection reagents. Subsequently the amount of phosphorylated substrate was evaluated by measurement of the resonance energy transfer from the Eu-chelate to the streptavidine-XL. Therefore, the fluorescence emissions at 620 nm and 665 nm after excitation at 350 nm were measured in a TR-FRET reader, e.g. a Rubystar (BMG Labtechnologies, Offenburg, Germany) or a Viewlux (Perkin-Elmer). The ratio of the emissions at 665 nm and at […] was taken as the measure for the amount of phosphorylated substrate. The data were normalised (enzyme reaction without inhibitor=0% inhibition, all other assay components but no enzyme=100% inhibition).
Background: Time-resolved FRET reads energy transfer from a long-lived donor to a nearby acceptor.

Test [2] concerns the target T1, MKNK1. Kind of test: MKNK1 kinase high ATP assay (TR-FRET-based). It is filed as biochemical. Conditions: Table 2a; 2 mM ATP, 15 min preincubation. The method, boiled down: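 TR-FRET read-out (anti-phospho-S6 Ser236 antibody, Eu/XL665) of biotin-peptide phosphorylation (0.06 μM) at high ATP (2 mM final). Enzyme was GST-MKNK1 full length, T344D, pre-bound to compound for 15 min before a 30 min reaction at 22 °C, pH 7.5. Inhibition scaled between no-inhibitor (0%) and no-enzyme (100%) wells.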

T1 sequence (Q9BUB5 1-424 isoform Q9BUB5-2 T344D): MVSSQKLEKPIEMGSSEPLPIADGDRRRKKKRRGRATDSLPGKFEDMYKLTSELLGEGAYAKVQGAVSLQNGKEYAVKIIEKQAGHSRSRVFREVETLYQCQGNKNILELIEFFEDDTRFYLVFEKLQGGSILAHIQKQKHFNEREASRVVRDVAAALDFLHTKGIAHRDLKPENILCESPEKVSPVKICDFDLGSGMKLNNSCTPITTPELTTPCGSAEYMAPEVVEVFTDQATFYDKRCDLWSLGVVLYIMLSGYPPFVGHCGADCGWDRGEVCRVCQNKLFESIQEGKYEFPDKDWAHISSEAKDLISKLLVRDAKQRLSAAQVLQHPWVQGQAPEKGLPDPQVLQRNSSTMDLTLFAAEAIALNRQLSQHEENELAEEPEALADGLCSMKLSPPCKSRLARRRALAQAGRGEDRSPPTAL

On to `O=C(c1ccccc1)N1CCOC(COc2ccc3ncc(-c4cc5ccccc5o4)n3n2)C1` (centres unmarked) [Example I-16, [2-({[3-(1-benzofuran-2-yl)imidazo[1,2-b]pyridazin-6-yl]oxy}methyl)morpholin-4-yl](phenyl)methanone], for which the IC50 amounted to 0.0047 µM against MKNK1 [1] and 0.0133 µM on MKNK1 [2].

Consider `CC(C)(C)CC(=O)NCCOc1ccc2ncc(-c3cc4ccccc4o3)n2n1` [Example I-17, N-(2-{[3-(1-Benzofuran-2-yl)imidazo[1,2-b]pyridazin-6-yl]oxy}ethyl)-3,3-dimethylbutanamide], for which the IC50 came out at 0.0046 µM at MKNK1 [1] and 0.0137 µM against MKNK1 [2].

For `O=C1NCCN1CCOc1ccc2ncc(-c3cc4ccccc4o3)n2n1` [Example I-18, 1-(2-{[3-(1-Benzofuran-2-yl)imidazo[1,2-b]pyridazin-6-yl]oxy}ethyl)-imidazolidin-2-one], the IC50 worked out at 0.0071 µM against MKNK1 [1] and 0.0138 µM against MKNK1 [2].

Consider `COc1cccc2oc(-c3cnc4ccc(OC[C@@H]5CCC(=O)N5)nn34)cc12` [Example I-19, (5S)-5-({[3-(4-Methoxy-1-benzofuran-2-yl)imidazo[1,2-b]pyridazin-6-yl]oxy}-methyl)pyrrolidin-2-one], for which the IC50 was 0.0045 µM against MKNK1 [1] and 0.0154 µM against MKNK1 [2].

Consider `COc1cccc2oc(-c3cnc4ccc(OC[C@H]5CN(C(=O)C(F)(F)F)CCO5)nn34)cc12` [Example I-20, 2,2,2-Trifluoro-1-[(2R)-2-({[3-(4-methoxy-1-benzofuran-2-yl)imidazo[1,2-b]-pyridazin-6-yl]oxy}methyl)morpholin-4-yl]ethanone], for which the IC50 is 0.0077 µM against MKNK1 [1] and 0.0155 µM at MKNK1 [2].

With `COc1cccc2oc(-c3cnc4ccc(OC[C@H]5CN(C(=O)C(C)(C)C)CCO5)nn34)cc12` [Example I-21, 1-[(2R)-2-({[3-(4-Methoxy-1-benzofuran-2-yl)imidazo[1,2-b]pyridazin-6-yl]-oxy}methyl)morpholin-4-yl]-2,2-dimethylpropan-1-one], the IC50 on MKNK1 [1] was found to be 0.0066 µM; against MKNK1 [2] it was 0.0177 µM.

Consider `O=C1CCCN1CCCOc1ccc2ncc(-c3cc4ccccc4o3)n2n1` [Example I-22, 1-(3-{[3-(1-Benzofuran-2-yl)imidazo[1,2-b]pyridazin-6-yl]oxy}propyl)pyrrolidin-2-one], for which the IC50 against MKNK1 [1] worked out at 0.0126 µM; against MKNK1 [2], 0.0186 µM.

Regarding `O=C(N[C@H]1C[C@H](Oc2ccc3ncc(-c4cc5ccccc5o4)n3n2)C1)C(F)(F)F` [Example I-23, N-(trans-3-{[3-(1-Benzofuran-2-yl)imidazo[1,2-b]pyridazin-6-yl]oxy}cyclobutyl)-2,2,2-trifluoroacetamide], the results for the IC50 against MKNK1 [1] and against MKNK1 [2] were 0.0157 µM and 0.0188 µM, respectively.

With `NC(=O)COc1ccc2ncc(-c3cc4ccccc4o3)n2n1` [Example I-24, 2-{[3-(1-Benzofuran-2-yl)imidazo[1,2-b]pyridazin-6-yl]oxy}acetamide], the IC50 at MKNK1 [1] came to 0.0125 µM; against MKNK1 [2] it was 0.0207 µM.

As to `CC(Oc1ccc2ncc(-c3cc4ccccc4o3)n2n1)C(N)=O` (centres unmarked) [Example I-25, 2-{[3-(1-Benzofuran-2-yl)imidazo[1,2-b]pyridazin-6-yl]oxy}propanamide], the IC50 at MKNK1 [1] worked out at 0.0047 µM; against MKNK1 [2] it was 0.0208 µM.

Consider `O=C1CCC(CCOc2ccc3ncc(-c4cc5ccccc5o4)n3n2)N1` (centres unmarked) [Example I-26, 5-(2-{[3-(1-Benzofuran-2-yl)imidazo[1,2-b]pyridazin-6-yl]oxy}ethyl)pyrrolidin-2-one], for which the results for the IC50 against MKNK1 [1] and against MKNK1 [2] were 0.009 µM and 0.023 µM, respectively.

`CC(=O)N1CCOC(COc2ccc3ncc(-c4cc5ccccc5o4)n3n2)C1` (centres unmarked) [Example I-27, 1-[2-({[3-(1-Benzofuran-2-yl)imidazo[1,2-b]pyridazin-6-yl]oxy}methyl)-morpholin-4-yl]ethanone]: the IC50 against MKNK1 [1] was 0.0073 µM; at MKNK1 [2], 0.0235 µM.

For `CC(=O)NCCOc1ccc2ncc(-c3cc4ccccc4o3)n2n1` [Example I-28, N-(2-{[3-(1-Benzofuran-2-yl)imidazo[1,2-b]pyridazin-6-yl]oxy}ethyl)acetamide], the IC50 at MKNK1 [1] was determined as 0.0091 µM; against MKNK1 [2], 0.0298 µM.

Turning to `O=C1CNC[C@@H](COc2ccc3ncc(-c4cc5ccccc5o4)n3n2)N1` [Example I-29, (6S)-6-({[3-(1-Benzofuran-2-yl)imidazo[1,2-b]pyridazin-6-yl]oxy}methyl)-piperazin-2-one], the IC50 against MKNK1 [1] came to 0.0131 µM; on MKNK1 [2] it was 0.0341 µM.

For `COCC(=O)NC[C@H](Oc1ccc2ncc(-c3cc4ccccc4o3)n2n1)c1cccnc1` [Example I-30, N-[(2R)-2-{[3-(1-Benzofuran-2-yl)imidazo[1,2-b]pyridazin-6-yl]oxy}-2-(pyridin-3-yl)ethyl]-2-methoxyacetamide], the IC50 on MKNK1 [1] amounted to 0.0103 µM; on MKNK1 [2] it was 0.0348 µM.

For `CC(=O)N1CCC[C@H]1CCOc1ccc2ncc(-c3cc4cc(Cl)ccc4o3)n2n1` [Example I-31, 1-[(2S)-2-(2-{[3-(5-Chloro-1-benzofuran-2-yl)imidazo[1,2-b]pyridazin-6-yl]oxy}ethyl)pyrrolidin-1-yl]ethanone], the IC50 is 0.0167 µM against MKNK1 [1] and 0.0352 µM on MKNK1 [2].

Turning to `CN1C(=O)CC[C@H]1COc1ccc2ncc(-c3cc4ccccc4o3)n2n1` [Example I-32, (5S)-5-({[3-(1-Benzofuran-2-yl)imidazo[1,2-b]pyridazin-6-yl]oxy}methyl)-1-methylpyrrolidin-2-one], the concentration for half-maximal inhibition (IC50) turned out to be 0.0137 µM against MKNK1 [1] and 0.0398 µM against MKNK1 [2].

Regarding `COc1ccc2oc(-c3cnc4ccc(OCCN5CCNC5=O)nn34)cc2c1` [Example I-33, 1-(2-{[3-(5-Methoxy-1-benzofuran-2-yl)imidazo[1,2-b]pyridazin-6-yl]oxy}ethyl)imidazolidin-2-one], the IC50 against MKNK1 [1] was 0.0155 µM; against MKNK1 [2] it was 0.0405 µM.

Regarding `CC(=O)NC(COc1ccc2ncc(-c3cc4ccccc4o3)n2n1)c1cccnc1` (centres unmarked) [Example I-34, N-[2-{[3-(1-Benzofuran-2-yl)imidazo[1,2-b]pyridazin-6-yl]oxy}-1-(pyridin-3-yl)ethyl]acetamide], the IC50 at MKNK1 [1] turned out to be 0.0164 µM; against MKNK1 [2] it was 0.0451 µM.

Consider `CC(=O)NC[C@H](Oc1ccc2ncc(-c3cc4ccccc4o3)n2n1)c1cccnc1` [Example I-35, N-[(2R)-2-{[3-(1-Benzofuran-2-yl)imidazo[1,2-b]pyridazin-6-yl]oxy}-2-(pyridin-3-yl)ethyl]acetamide], for which the results for the IC50 on MKNK1 [1] and at MKNK1 [2] were 0.0179 µM and 0.0478 µM, respectively.

In the case of `CN(C)C(=O)COc1ccc2ncc(-c3cc4ccccc4o3)n2n1` [Example I-36, 2-{[3-(1-Benzofuran-2-yl)imidazo[1,2-b]pyridazin-6-yl]oxy}-N,N-dimethyl-acetamide], the results for the IC50 against MKNK1 [1] and against MKNK1 [2] were 0.0151 µM and 0.0562 µM, respectively.

In the case of `CC(C)(C)NC(=O)COc1ccc2ncc(-c3cc4ccccc4o3)n2n1` [Example I-37, 2-{[3-(1-Benzofuran-2-yl)imidazo[1,2-b]pyridazin-6-yl]oxy}-N-tert-butyl-acetamide], the IC50 against MKNK1 [1] came out at 0.017 µM; against MKNK1 [2], 0.07 µM.

`O=C1NCCC1Oc1ccc2ncc(-c3cc4ccccc4o3)n2n1` (centres unmarked) [Example I-38, 3-{[3-(1-Benzofuran-2-yl)imidazo[1,2-b]pyridazin-6-yl]oxy}pyrrolidin-2-one]: the IC50 at MKNK1 [1] is 0.064 µM; against MKNK1 [2] it was 0.0717 µM.

As to `NC(=O)C(Oc1ccc2ncc(-c3cc4ccccc4o3)n2n1)c1cccnc1` (centres unmarked) [Example I-39, 2-{[3-(1-Benzofuran-2-yl)imidazo[1,2-b]pyridazin-6-yl]oxy}-2-(pyridin-3-yl)acetamide], the IC50 on MKNK1 [1] amounted to 0.0552 µM; on MKNK1 [2], 0.0777 µM.

For the molecule `CC(C)(C)C(=O)N1CCC[C@H]1CCOc1ccc2ncc(-c3cc4cc(Cl)ccc4o3)n2n1` [Example I-40, 1-[(2S)-2-(2-{[3-(5-Chloro-1-benzofuran-2-yl)imidazo[1,2-b]pyridazin-6-yl]-oxy}ethyl)pyrrolidin-1-yl]-2,2-dimethylpropan-1-one], the IC50 against MKNK1 [1] worked out at 0.026 µM; against MKNK1 [2], 0.0764 µM.

What is called IC50 is the concentration needed to halve the response being measured. Low readings indicate inhibition by little substance, high ones a need for much substance.
